Measured values taken from patent US20150218523A1, “MANUFACTURE OF VASCULAR SMOOTH MUSCLE CELLS AND THE USE” (Agency for Science, Technology and Research, priority 2014, published 2015).

Key:
[1] = system: NCSMCs derived from hESC (H9); conditions: NCSMCs at 1% oxygen, drug 48 hr (minocycline 5 μM, losartan 5 μM), then labeled Aβ for 1 hr
Procedure: NCSMCs and BVSMCs were routinely cultured at 21% oxygen and 1% oxygen to simulate normoxic and chronic hypoxic conditions, respectively. Twenty one percent O2 SMCs were seeded at 30,000 cells/well onto 96-well plate as positive controls. One percent O2 SMCs were seeded at the same density as negative controls and experimental samples for drug treatment on the same plate. The 96-well plate was incubated at 37° C. overnight at 21% O2. After cell attachment, 2 mg/ml of fluorescently labeled amyloid peptide (Aβ42-Hilyte Fluor 555 or Aβ40-Hilyte Fluor 488, Anaspec) was added to SMCs for a 1 hr uptake at 37° C. After Aβ uptake, cells were dissociated into single-cell suspension for high-throughput flow cytometry by LSRFortessa plate analyzer. Respective Z factors for NCSMC and BVSMC Aβ uptake assays were calculated based on their mean fluorescence brightness (normalized to no-uptake controls) and SDs of positive (21% O2) and negative (1% O2) controls. […] Mean fluorescence brightness signals (normalized to no-uptake control) indicated the degree of amyloid uptake.
NCSMC were treated with the following reference compounds for 48 hours at 37° C. prior to Aβ uptake. […]
The NCSMC and BVSMC cultures were scaled down to 96-well format. […] Cells were incubated with labeled Aβ40 and Aβ42 (2 mg/ml) for an hour and subsequently evaluated by high-throughput flow cytometry.

SMC subtypes = assay: SMC contraction study; format: cell-based, human; conditions: angiotensin II 0.5 μM, 10 min, all SMC subtypes, n=30
Procedure: SMCs were preloaded with the calcium-sensitive fluorophore, Fluo-4 AM (2.5 μM; Molecular Probes) at 37° C. for an hour. Contraction was induced by treating the cells with angiotensin II (0.5 μM, Sigma). Contraction pictures and intracellular calcium flux videos of SMCs were acquired by a time-lapse microscope live cell imaging microscope (Zeiss Axiovert 200M) during 10 minutes of angiotensin II treatment. Change of cell surface area was assessed by ImageJ software.

Molecule | Effect on Aβ uptake (Aβ40 and Aβ42) over the vehicle control [1] | Reduction of cell surface area in contracting SMCs (SMC subtypes)
CCCCc1nc(Cl)c(CO)n1Cc1ccc(-c2ccccc2-c2nn[nH]n2)cc1 [losartan] | may not have any apparent effect | –
angiotensin II (DRVYIHPF; Angiotensin-2; UniProt P01019 25-32, looked up) [vasoconstrictor, an inducer of contraction (0.5 μM, Sigma)] | – | 18%-21%
